Literature values as cited in patent US20220280449A1, “CURCUMINOID COMPOSITIONS” (priority 2018, published 2022).

System: Caco-2 cells

In the case of `COc1cc(/C=C/C(=O)CC(=O)/C=C/c2ccc(O)c(OC)c2)ccc1O` [curcumin], the “predicted absorption in humans” value (from correlation of Caco-2 Papp with human absorption) is given as 0-20% and the “apparent permeability coefficient (Papp value)” value (in vitro human intestinal cell model (Caco-2)) is given as 0.1 ×10⁻⁶ cm/s.
